Assay results reported in PubChem BioAssay AID1845197 (Molecular Pharmacology Branch, DTP, NCI, 2023).

Test system: 349418-098-R tumor spheroid viability
Assay: Anticancer human tumor 349418-098-R patient-derived lung adenocarcinoma cell line growth inhibition
Conditions: spheroids with HUVEC and MSC; for IC50: curve of first compound; for viability, T/C: stronger effect = lower value; active = viability on the fitted dose curve at most 10% of control; inactive = the rest
How it was run: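 Complex tumor spheroids combined malignant cells with endothelial cells and mesenchymal stem cells. DNA-damaging drugs and DNA repair inhibitors were tested alone and in combination, at half-log dilutions down from clinical Cmax (top 10 microM if Cmax unknown), 0.25% DMSO final.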
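Also: spheroids exposed to compound for 7 days before measurement.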
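For viability, T/C in this document: percent of vehicle control viability with 100% = DMSO-treated spheroids.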

Cn1ncnc1[C@H]1c2n[nH]c(=O)c3cc(F)cc(c23)N[C@@H]1c1ccc(F)cc1 + COc1cc2c(cc1O)CCNC21CSC2c3c(OC(C)=O)c(C)c4c(c3C(COC1=O)N1C(O)C3Cc5cc(C)c(OC)c(O)c5C(C21)N3C)OCO4
active: viability, T/C (second compound 30 pM, first compound 3 µM) 9.75% | viability, T/C (second compound 94.9 pM, first compound 3 µM) 4.92% | viability, T/C (second compound 0.0003 µM, first compound 3 µM) 2.39% | viability, T/C (second compound 0.000949 µM, first compound 0.00949 µM) 0.87% | viability, T/C (second compound 0.000949 µM, first compound 0.03 µM) 0.43% | viability, T/C (second compound 0.000949 µM, first compound 0.0949 µM) 0.53% | viability, T/C (second compound 0.000949 µM, first compound 0.3 µM) 0.21% | viability, T/C (second compound 0.000949 µM, first compound 0.949 µM) 0.13% | viability, T/C (second compound 0.000949 µM, first compound 3 µM) 0.19% | viability, T/C (second compound 0.003 µM, first compound 0.00949 µM) 1.57% | viability, T/C (second compound 0.003 µM, first compound 0.03 µM) 1.54% | viability, T/C (second compound 0.003 µM, first compound 0.0949 µM) 1.41% | viability, T/C (second compound 0.003 µM, first compound 0.3 µM) 1.35% | viability, T/C (second compound 0.003 µM, first compound 0.949 µM) 2.21% | viability, T/C (second compound 0.003 µM, first compound 3 µM) 3.32%
inactive: viability, T/C (second compound 30 pM, first compound 0.00949 µM) 87.2% | viability, T/C (second compound 30 pM, first compound 0.03 µM) 97.2% | viability, T/C (second compound 30 pM, first compound 0.0949 µM) 88.8% | viability, T/C (second compound 30 pM, first compound 0.3 µM) 93.5% | viability, T/C (second compound 30 pM, first compound 0.949 µM) 86.8% | viability, T/C (second compound 94.9 pM, first compound 0.00949 µM) 93.2% | viability, T/C (second compound 94.9 pM, first compound 0.03 µM) 89.6% | viability, T/C (second compound 94.9 pM, first compound 0.0949 µM) 85.6% | viability, T/C (second compound 94.9 pM, first compound 0.3 µM) 94.8% | viability, T/C (second compound 94.9 pM, first compound 0.949 µM) 50.3% | viability, T/C (second compound 0.0003 µM, first compound 0.00949 µM) 66.4% | viability, T/C (second compound 0.0003 µM, first compound 0.03 µM) 68.5% | viability, T/C (second compound 0.0003 µM, first compound 0.0949 µM) 47.8% | viability, T/C (second compound 0.0003 µM, first compound 0.3 µM) 34.9% | viability, T/C (second compound 0.0003 µM, first compound 0.949 µM) 11.5%
1.64 µM: IC50 (second compound 30 pM)
< 0.00949 µM: IC50 (second compound 0.000949 µM) | IC50 (second compound 0.003 µM)
0.107 µM: IC50 (second compound 0.0003 µM)
0.956 µM: IC50 (second compound 94.9 pM)

Cc1cc(C)c(CNC(=O)c2cc(-c3ccc(CN4CCOCC4)cc3)cc3c2cnn3C2CCCC2)c(=O)[nH]1 + Cn1nnc2c(C(N)=O)ncn2c1=O
inactive: viability, T/C (second compound 1 µM, first compound 0.0316 µM) 98% | viability, T/C (second compound 1 µM, first compound 0.1 µM) 97.6% | viability, T/C (second compound 1 µM, first compound 0.316 µM) 103% | viability, T/C (second compound 1 µM, first compound 1 µM) 97.1% | viability, T/C (second compound 1 µM, first compound 3.16 µM) 91.6% | viability, T/C (second compound 1 µM, first compound 10 µM) 25.8% | viability, T/C (second compound 3.16 µM, first compound 0.0316 µM) 104% | viability, T/C (second compound 3.16 µM, first compound 0.1 µM) 102% | viability, T/C (second compound 3.16 µM, first compound 0.316 µM) 103% | viability, T/C (second compound 3.16 µM, first compound 1 µM) 104% | viability, T/C (second compound 3.16 µM, first compound 3.16 µM) 92.6% | viability, T/C (second compound 3.16 µM, first compound 10 µM) 35.2% | viability, T/C (second compound 10 µM, first compound 0.0316 µM) 97.4% | viability, T/C (second compound 10 µM, first compound 0.1 µM) 106% | viability, T/C (second compound 10 µM, first compound 0.316 µM) 98.7% | viability, T/C (second compound 10 µM, first compound 1 µM) 102% | viability, T/C (second compound 10 µM, first compound 3.16 µM) 94.3% | viability, T/C (second compound 10 µM, first compound 10 µM) 35.8% | viability, T/C (second compound 31.6 µM, first compound 0.0316 µM) 99.2% | viability, T/C (second compound 31.6 µM, first compound 0.1 µM) 104% | viability, T/C (second compound 31.6 µM, first compound 0.316 µM) 99.2% | viability, T/C (second compound 31.6 µM, first compound 1 µM) 105% | viability, T/C (second compound 31.6 µM, first compound 3.16 µM) 91.6% | viability, T/C (second compound 31.6 µM, first compound 10 µM) 20.5% | viability, T/C (second compound 100 µM, first compound 0.0316 µM) 104% | viability, T/C (second compound 100 µM, first compound 0.1 µM) 105% | viability, T/C (second compound 100 µM, first compound 0.316 µM) 103% | viability, T/C (second compound 100 µM, first compound 1 µM) 97.2% | viability, T/C (second compound 100 µM, first compound 3.16 µM) 91.6% | viability, T/C (second compound 100 µM, first compound 10 µM) 21.5%
7.58 µM: IC50 (second compound 10 µM)
7.44 µM: IC50 (second compound 3.16 µM)
6.56 µM: IC50 (second compound 1 µM)
6.24 µM: IC50 (second compound 31.6 µM) | IC50 (second compound 100 µM)
